Where two headings read alike, the source gives them in different places.
What was measured:
hGIPR = target: T1, hGIPR (Homo sapiens, UniProt P48546); test: Functional cAMP formation (HTRF) in HEK-293 clonal cells expressing hGIPR, 0.1% bovine casein, without or with 1.0% human serum albumin; type: cell-based; details: for EC50: geometric mean
T1 construct: expressed in transfected cells
T1 sequence (P48546 22-466): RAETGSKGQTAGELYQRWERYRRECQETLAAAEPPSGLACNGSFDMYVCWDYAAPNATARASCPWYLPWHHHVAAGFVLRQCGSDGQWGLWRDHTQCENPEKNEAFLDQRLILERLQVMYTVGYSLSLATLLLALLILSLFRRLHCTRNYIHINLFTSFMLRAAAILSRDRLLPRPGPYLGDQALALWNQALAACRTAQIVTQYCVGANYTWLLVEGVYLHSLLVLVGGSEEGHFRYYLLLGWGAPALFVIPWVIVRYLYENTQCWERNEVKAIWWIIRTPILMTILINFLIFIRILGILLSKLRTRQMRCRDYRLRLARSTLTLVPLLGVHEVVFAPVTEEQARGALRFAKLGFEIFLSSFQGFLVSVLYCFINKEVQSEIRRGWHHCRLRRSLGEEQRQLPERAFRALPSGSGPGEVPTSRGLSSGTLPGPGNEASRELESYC
Outline: (§1)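 Cells were stimulated with peptide for 30 min at 37° C, then lysed in buffer carrying cAMP-d2 and anti-cAMP Eu3+-cryptate for a competitive HTRF read after at least 60 min at room temperature. The 665/620 nm ratio was converted to nM cAMP against a standard curve.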

hGCGR = target: T2, hGCGR (Homo sapiens, UniProt P47871); test: Functional cAMP formation (HTRF) in HEK-293 clonal cells expressing hGCGR, 0.1% bovine casein, without or with 1.0% human serum albumin; type: cell-based; details: geometric mean
T2 construct: expressed in transfected cells
T2 sequence (P47871 26-477): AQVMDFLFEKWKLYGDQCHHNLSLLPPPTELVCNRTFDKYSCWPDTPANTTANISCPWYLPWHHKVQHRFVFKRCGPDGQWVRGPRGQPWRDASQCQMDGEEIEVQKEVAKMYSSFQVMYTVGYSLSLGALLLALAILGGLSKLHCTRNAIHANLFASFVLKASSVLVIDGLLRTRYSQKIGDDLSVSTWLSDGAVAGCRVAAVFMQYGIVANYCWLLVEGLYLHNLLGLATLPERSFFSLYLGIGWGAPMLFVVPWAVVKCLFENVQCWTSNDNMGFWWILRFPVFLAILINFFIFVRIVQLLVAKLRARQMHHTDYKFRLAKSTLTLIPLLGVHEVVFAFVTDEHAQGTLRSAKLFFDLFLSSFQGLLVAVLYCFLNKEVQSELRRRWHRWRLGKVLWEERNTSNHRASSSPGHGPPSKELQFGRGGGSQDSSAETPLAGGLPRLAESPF
Outline: as §1

[1] = HEK293, percent of maximal response to GIP(1-42)NH2, 37° C., 0.1% bovine casein, arithmetic mean, read-out: hGIPR Emax, % ± SEM
[2] = cAMP, incubated at 37° C., 0.1% bovine casein (no human serum albumin), read-out: hGCGR EC50, nM (SEM, n)
[3] = HEK293, 0.1% bovine casein and 1.0% human serum albumin, 37° C., percent of maximal response to GIP(1-42)NH2, read-out: hGIPR Emax, % ± SEM
[4] = 0.1% bovine casein and 1.0% human serum albumin, 37° C., read-out: hGCGR EC50, nM (SEM, n)

## CC[C@H](C)[C@H](NC(=O)[C@H](CC(C)C)NC(=O)[C@](C)(Cc1ccc(O)cc1)NC(=O)[C@@H](CCC(=O)O)NC(=O)[C@@H](NC(=O)[C@H](Cc1ccccc1)NC(=O)[C@H](CCC(=O)O)NC(=O)C(C)(C)NC(=O)[C@H](CCC(N)=O)NC(=O)[C@H](C)NC(=O)[C@H](CCCCNC(=O)COCCOCCNC(=O)COCCOCCNC(=O)CC[C@H](NC(=O)CCCCCCCCCCCCC(=O)O)C(=O)O)NC(=O)[C@H](CCCN)NC(=O)[C@H](CC(=O)O)NC(=O)[C@H](CC(C)C)NC(=O)[C@](C)(CC(C)C)NC(=O)[C@@H](NC(=O)[C@H](CO)NC(=O)[C@H](Cc1ccncc1)NC(=O)[C@H](CC(=O)O)NC(=O)[C@H](CO)NC(=O)[C@@H](NC(=O)[C@](C)(Cc1ccccc1F)NC(=O)[C@@H](NC(=O)CNC(=O)[C@H](CCC(=O)O)NC(=O)C(C)(C)NC(=O)[C@@H](N)Cc1ccc(O)cc1)[C@@H](C)O)[C@@H](C)O)[C@@H](C)CC)[C@@H](C)CC)C(=O)N[C@@H](CCC(=O)O)C(=O)NCC(=O)N[C@@H](CCCN)C(=O)N[C@@H](CCCCNC(=O)COCCOCCNC(=O)COCCOCCNC(=O)CC[C@H](NC(=O)CCCCCCCCCCCCC(=O)O)C(=O)O)C(=O)N[C@@H](CO)C(=O)N[C@@H](CO)C(=O)NCC(=O)N[C@@H](C)C(=O)N1CCC[C@H]1C(=O)N1CCC[C@H]1C(=O)N1CCC[C@H]1C(=O)N[C@@H](CO)C(N)=O [Example 152]
hGIPR; [1]
  Emax: 97.9 ± 3.25%
hGCGR; [2]
  EC50: > 9950 nM

## CC[C@H](C)[C@H](NC(=O)[C@H](CCCN)NC(=O)[C@H](CC(=O)O)NC(=O)[C@H](CC(C)C)NC(=O)[C@](C)(CC(C)C)NC(=O)[C@@H](NC(=O)[C@H](CO)NC(=O)[C@H](CCCCNC(=O)COCCOCCNC(=O)COCCOCCNC(=O)CC[C@H](NC(=O)CCCCCCCCCCCCC(=O)O)C(=O)O)NC(=O)[C@H](CC(=O)O)NC(=O)[C@H](CO)NC(=O)[C@@H](NC(=O)[C@](C)(Cc1ccccc1F)NC(=O)[C@@H](NC(=O)CNC(=O)[C@H](CCC(=O)O)NC(=O)C(C)(C)NC(=O)[C@@H](N)Cc1ccc(O)cc1)[C@@H](C)O)[C@@H](C)O)[C@@H](C)CC)C(=O)N[C@@H](C)C(=O)N[C@@H](CCC(N)=O)C(=O)NC(C)(C)C(=O)N[C@@H](CCC(=O)O)C(=O)N[C@@H](Cc1ccccc1)C(=O)N[C@H](C(=O)N[C@@H](CCCCNC(=O)COCCOCCNC(=O)COCCOCCNC(=O)CC[C@H](NC(=O)CCCCCCCCCCCCC(=O)O)C(=O)O)C(=O)N[C@@](C)(Cc1ccc(O)cc1)C(=O)N[C@@H](CC(C)C)C(=O)N[C@H](C(=O)N[C@@H](CCC(=O)O)C(=O)NCC(=O)NCC(=O)N1CCC[C@H]1C(=O)N[C@@H](CO)C(=O)N[C@@H](CO)C(=O)NCC(=O)N[C@@H](C)C(=O)N1CCC[C@H]1C(=O)N1CCC[C@H]1C(=O)N1CCC[C@H]1C(=O)N[C@@H](CO)C(N)=O)[C@@H](C)CC)[C@@H](C)CC [Example 106]
hGIPR; HEK293, read-out: hGIPR Emax, % ± SEM, percent of maximal response to GIP(1-42)NH2, 37° C., 0.1% bovine casein, arithmetic mean
  Emax: 98.7 ± 3.32%
hGIPR; hGIPR EC50, nM (SEM, n), cAMP, incubated at 37° C., 0.1% bovine casein (no human serum albumin)
  EC50: 0.0385 nM
hGCGR; hGCGR EC50, nM (SEM, n), cAMP, incubated at 37° C., 0.1% bovine casein (no human serum albumin)
  EC50: > 9950 nM

## CC[C@H](C)[C@H](NC(=O)[C@H](CC(C)C)NC(=O)[C@](C)(Cc1ccc(O)cc1)NC(=O)[C@@H](CCC(=O)O)NC(=O)[C@@H](NC(=O)[C@H](Cc1ccccc1)NC(=O)[C@H](CCC(=O)O)NC(=O)C(C)(C)NC(=O)[C@H](CCC(N)=O)NC(=O)[C@H](C)NC(=O)[C@H](CCCCNC(=O)COCCOCCNC(=O)COCCOCCNC(=O)CC[C@H](NC(=O)CCCCCCCCCCCCC(=O)O)C(=O)O)NC(=O)[C@H](CCCN)NC(=O)[C@H](CC(=O)O)NC(=O)[C@H](CC(C)C)NC(=O)[C@](C)(CC(C)C)NC(=O)[C@@H](NC(=O)[C@H](CO)NC(=O)[C@H](Cc1ccc(OC)cc1)NC(=O)[C@H](CC(=O)O)NC(=O)[C@H](CO)NC(=O)[C@@H](NC(=O)[C@](C)(Cc1ccccc1F)NC(=O)[C@@H](NC(=O)CNC(=O)[C@H](CCC(=O)O)NC(=O)C(C)(C)NC(=O)[C@@H](N)Cc1ccc(O)cc1)[C@@H](C)O)[C@@H](C)O)[C@@H](C)CC)[C@@H](C)CC)C(=O)N[C@@H](CCCCNC(=O)COCCOCCNC(=O)COCCOCCNC(=O)CC[C@H](NC(=O)CCCCCCCCCCCCC(=O)O)C(=O)O)C(=O)NCC(=O)NCC(=O)N1CCC[C@H]1C(=O)N[C@@H](CO)C(=O)N[C@@H](CO)C(=O)NCC(=O)N[C@@H](C)C(=O)N1CCC[C@H]1C(=O)N1CCC[C@H]1C(=O)N1CCC[C@H]1C(=O)N[C@@H](CO)C(N)=O [Example 260]
hGIPR; 0.1% bovine casein and 1.0% human serum albumin, 37° C., read-out: hGIPR EC50, nM (SEM, n)
  EC50: 3.27 nM
hGIPR; [3]
  Emax: 83%
hGIPR; HEK293, cAMP, 37° C., 0.1% bovine casein, percent of maximal response to GIP(1-42)NH2, arithmetic mean, read-out: hGIPR Emax, % ± SEM
  Emax: 113%
hGIPR; cAMP, 37° C., 0.1% bovine casein (no human serum albumin), read-out: hGIPR EC50, nM (SEM, n)
  EC50: 0.0239 nM
hGCGR; [4]
  EC50: > 9950 nM
hGCGR; cAMP, 37° C., 0.1% bovine casein (no human serum albumin), read-out: hGCGR EC50, nM (SEM, n)
  EC50: > 9950 nM

## CC[C@H](C)[C@H](NC(=O)[C@H](CC(C)C)NC(=O)[C@](C)(Cc1ccc(O)cc1)NC(=O)[C@@H](CCC(=O)O)NC(=O)[C@@H](NC(=O)[C@H](Cc1ccccc1)NC(=O)[C@H](CCC(=O)O)NC(=O)C(C)(C)NC(=O)[C@H](CCC(N)=O)NC(=O)[C@H](C)NC(=O)[C@H](CCCCNC(=O)COCCOCCNC(=O)COCCOCCNC(=O)CC[C@H](NC(=O)CCCCCCCCCOc1ccc(C(=O)O)cc1)C(=O)O)NC(=O)[C@H](CCCN)NC(=O)[C@H](CC(=O)O)NC(=O)[C@H](CC(C)C)NC(=O)[C@](C)(CC(C)C)NC(=O)[C@@H](NC(=O)[C@H](CO)NC(=O)[C@H](Cc1ccc2ccccc2c1)NC(=O)[C@H](CC(=O)O)NC(=O)[C@H](CO)NC(=O)[C@@H](NC(=O)[C@](C)(Cc1ccccc1F)NC(=O)[C@@H](NC(=O)CNC(=O)[C@H](CCC(=O)O)NC(=O)C(C)(C)NC(=O)[C@@H](N)Cc1ccc(O)cc1)[C@@H](C)O)[C@@H](C)O)[C@@H](C)CC)[C@@H](C)CC)C(=O)N[C@@H](CCCCNC(=O)COCCOCCNC(=O)COCCOCCNC(=O)CC[C@H](NC(=O)CCCCCCCCCOc1ccc(C(=O)O)cc1)C(=O)O)C(=O)NCC(=O)NCC(=O)N1CCC[C@H]1C(=O)N[C@@H](CO)C(=O)N[C@@H](CO)C(=O)NCC(=O)N[C@@H](C)C(=O)N1CCC[C@H]1C(=O)N1CCC[C@H]1C(=O)N1CCC[C@H]1C(=O)N[C@@H](CO)C(N)=O [Example 282]
hGIPR; HEK293, read-out: hGIPR Emax, % ± SEM, 0.1% bovine casein and 1.0% human serum albumin, 37° C., percent of maximal response to GIP(1-42)NH2
  Emax: 84.4%
hGIPR; hGIPR EC50, nM (SEM, n), 0.1% bovine casein and 1.0% human serum albumin, 37° C.
  EC50: 1.44 nM
hGIPR; hGIPR EC50, nM (SEM, n), cAMP, 37° C., 0.1% bovine casein (no human serum albumin)
  EC50: 0.0193 nM
hGCGR; hGCGR EC50, nM (SEM, n), 0.1% bovine casein and 1.0% human serum albumin, 37° C.
  EC50: > 9950 nM
hGCGR; hGCGR EC50, nM (SEM, n), cAMP, 37° C., 0.1% bovine casein (no human serum albumin)
  EC50: > 9950 nM

## CC[C@H](C)[C@H](NC(=O)[C@H](CC(C)C)NC(=O)[C@](C)(Cc1ccc(O)cc1)NC(=O)[C@@H](CCC(=O)O)NC(=O)[C@@H](NC(=O)[C@H](Cc1ccccc1)NC(=O)[C@H](CCC(=O)O)NC(=O)C(C)(C)NC(=O)[C@H](CCC(N)=O)NC(=O)[C@H](C)NC(=O)[C@H](CCCCNC(=O)COCCOCCNC(=O)COCCOCCNC(=O)CC[C@H](NC(=O)CCCCCCCCCCCCC(=O)O)C(=O)O)NC(=O)[C@H](CCCN)NC(=O)[C@H](CC(=O)O)NC(=O)[C@H](CC(C)C)NC(=O)[C@](C)(CC(C)C)NC(=O)[C@@H](NC(=O)[C@H](CO)NC(=O)[C@@H](NC(=O)[C@H](CC(=O)O)NC(=O)[C@H](CO)NC(=O)[C@@H](NC(=O)[C@](C)(Cc1ccccc1F)NC(=O)[C@@H](NC(=O)CNC(=O)[C@H](CCC(=O)O)NC(=O)C(C)(C)NC(=O)[C@@H](N)Cc1ccc(O)cc1)[C@@H](C)O)[C@@H](C)O)C1CCCCC1)[C@@H](C)CC)[C@@H](C)CC)C(=O)N[C@@H](CCC(=O)O)C(=O)NCC(=O)NCC(=O)N[C@@H](CCCCNC(=O)COCCOCCNC(=O)COCCOCCNC(=O)CC[C@H](NC(=O)CCCCCCCCCCCCC(=O)O)C(=O)O)C(=O)N[C@@H](CO)C(=O)N[C@@H](CO)C(=O)NCC(=O)N[C@@H](C)C(=O)N1CCC[C@H]1C(=O)N1CCC[C@H]1C(=O)N1CCC[C@H]1C(=O)N[C@@H](CO)C(N)=O [Example 97]
hGIPR; [3]
  Emax: 93.1%
hGIPR; [1]
  Emax: 97 ± 1.53%
hGCGR; [4]
  EC50: > 9950 nM
hGCGR; [2]
  EC50: > 9950 nM

— patent publication US20230265151A1, “GIP/GLP1 CO-AGONIST COMPOUNDS” (priority 2020, published 2023)
